Source: US9987278B2, “Pharmaceutical composition for treating FLT3 mutation-positive cancer, mutant FLT3 inhibitor and uses thereof” (FUJIFILM Corporation, priority 2014, dated 2018)
pIC50: −log10 of the molar value. Read-outs that look alike come from different tables or passages of the source.

Assays:
32D FLT3/FL cells = experiment: Cell growth assay, FLT3/FLT3 ligand-coexpressing 32D cell line; type: cell-based; details: Mus musculus, 48 h, read-out: GI50 value for growth of FLT3 protein-expressing 32D cells
Procedure: RPMI1640 and DMEM were purchased from Life Technologies or SIGMA. The 32D cells were obtained from RIKEN Bioresource Center, and cultured in the presence of 5% CO2 at 37° C. using an RPMI1640 medium containing 1 ng/mL mouse IL-3, 10% fetal bovine serum (FBS), 100 U/mL penicillin and […] streptomycin. The PLAT-E cells were kindly provided by Dr. Kitamura Toshio of Tokyo University and cultured in a DMEM medium containing 1 μg/mL puromycin, 10 μg/mL blasticidin S, 10% FBS, 100 U/mL penicillin and […] streptomycin. […] A pGEM-T vector, FuGENE6 and CellTiter 96 AQueous One Solution Cell Proliferation Assay were purchased from Promega Corporation.
(§1) Individual cells were seeded onto a 96-well plate (Becton, Dickinson and Company) at a density of 1000 to 10000 cells/well, and the cell culture was started at 37° C. in the presence of 5% CO2. On the next day, the compound diluted in 3-fold common ratio was added to each well, followed by further culturing for 2 days. Then, in order to evaluate the cell viability, a CellTiter 96 AQueous One SolutionReagent was added to each well according to the Promega Corporation's protocol, followed by culturing for 1 hour. […] In a case where the absorbance is insufficient, the absorbance was measured after performing the culturing for another 1 to 2 hours.

32D FLT3 D835Y cells = experiment: Cell growth assay, 32D FLT3 D835Y; type: cell-based; details: Mus musculus, 48 h, read-out: GI50 value for growth of FLT3 protein-expressing 32D cells
Procedure: (§2) After the virus-containing culture supernatant was added to the mouse hematopoietic precursor cell line 32D cells in the presence of 10 μg/mL polybrene, and the cells were cultured in the presence of 0.5 ng/mL mouse IL-3.
as §1

32D FLT3 D835V cells = experiment: Cell growth assay, 32D FLT3 D835V; type: cell-based; details: Mus musculus, 48 h, read-out: GI50 value for growth of FLT3 protein-expressing 32D cells
Procedure: as §2, §1

32D FLT3 D835H cells = experiment: Cell growth assay, 32D FLT3 D835H; type: cell-based; details: Mus musculus, 48 h, read-out: GI50 value for growth of FLT3 protein-expressing 32D cells
Procedure: as §2, §1

32D FLT3 D835E cells = experiment: Cell growth assay, 32D FLT3 D835E; type: cell-based; details: Mus musculus, 48 h, read-out: GI50 value for growth of FLT3 protein-expressing 32D cells
Procedure: as §2, §1

32D FLT3 D835N cells = experiment: Cell growth assay, 32D FLT3 D835N; type: cell-based; details: Mus musculus, 48 h, read-out: GI50 value for growth of FLT3 protein-expressing 32D cells
Procedure: as §2, §1

32D FLT3 D835Ins cells = experiment: Cell growth assay, 32D FLT3 D835Ins; type: cell-based; details: Mus musculus, 48 h, read-out: GI50 value for growth of FLT3 protein-expressing 32D cells
Procedure: as §2, §1

32D FLT3 Y842C cells = experiment: Cell growth assay, 32D FLT3 Y842C; type: cell-based; details: Mus musculus, 48 h, read-out: GI50 value for growth of FLT3 protein-expressing 32D cells
Procedure: as §2, §1

32D FLT3 Y842H cells = experiment: Cell growth assay, 32D FLT3 Y842H; type: cell-based; details: Mus musculus, 48 h, read-out: GI50 value for growth of FLT3 protein-expressing 32D cells
Procedure: as §2, §1

[1] = tested on: FLT3 ITD-expressing 32D cells; experiment: Cell growth assay, FLT3 ITD-expressing 32D cells; type: cell-based; details: Mus musculus, read-out: GI50 value for growth of FLT3 protein-expressing 32D cells
Source text: The ITD-mutant FLT3-expressing vector was constructed by introducing an ITD-mutant FLT3 gene (clone Mt2) described in Kiyoi H, et al., Leukemia, Vol. 12, pp. 1333 to 1337, 1998 into a pMXs-IP retroviral vector as a sequence having a FLAG sequence added to the C-terminal thereof.
(§3) The mutant FLT3 pMXs-IP retroviral vectors prepared according to the above-mentioned procedure were introduced into PLAT-E cells by using FuGENE6, followed by culturing for 2 days, and the culture supernatant containing viruses was collected. After the virus-containing culture supernatant was added to the mouse hematopoietic precursor cell line 32D cells in the presence of 10 μg/mL polybrene, and the cells were cultured in the presence of 0.5 ng/mL mouse IL-3. […]
(§4) Individual cells were seeded onto a 96-well plate (Becton, Dickinson and Company) at a density of 1000 to 10000 cells/well, and the cell culture was started at 37° C. in the presence of 5% CO2. […] Thereafter, the absorbance (OD=492 nm) was measured using an MPR-A4i II microplate reader (Tosoh Corporation). In a case where the absorbance is insufficient, the absorbance was measured after performing the culturing for another 1 to 2 hours. […]

[2] = tested on: FLT3 ITD.D835Y-expressing 32D cells; experiment: Cell growth assay, FLT3 ITD.D835Y-expressing 32D cells; type: cell-based; details: Mus musculus, read-out: GI50 value for growth of FLT3 protein-expressing 32D cells
Source text: The ITD.D835Y-mutant FLT3-expressing vector was constructed by replacing a sequence containing aspartic acid 835 cleaved by Sphl, in the C-terminal FLAG sequence-added ITD-mutant FLT3 gene inserted into a pGEM-T vector, with the corresponding sequence of the C-terminal FLAG sequence-added D835Y-mutant FLT3 gene inserted into a pGEM-T vector, and then inserting the whole length of C-terminal FLAG sequence-added ITD.D835Y-mutant FLT3 sequence into a pMXs-IP retroviral vector.
as §3, §4

[3] = tested on: FLT3 ITD.Y842C-expressing 32D cells; experiment: Cell growth assay, FLT3 ITD.Y842C-expressing 32D cells; type: cell-based; details: Mus musculus, read-out: GI50 value for growth of FLT3 protein-expressing 32D cells
Source text: (§5) The ITD.Y842C-mutant or ITD.Y842H-mutant FLT3-expressing vector was constructed by introducing Y842C and Y842H mutations into the C-terminal FLAG sequence-added ITD-mutant FLT3 gene inserted into a pGEM-T vector as a template, using the primers shown below and according to the protocol of a QuikChange Site-Directed Mutagenesis Kit (Stratagene Corporation), and then inserting the whole length of the ITD.Y842-mutant FLT3 gene into a pMXs-IP retroviral vector. Introduced mutations were confirmed by sequence analysis.
(§6) The mutant FLT3 pMXs-IP retroviral vectors prepared according to the above-mentioned procedure were introduced into PLAT-E cells by using FuGENE6, followed by culturing for 2 days, and the culture supernatant containing viruses was collected. […]
as §4

[4] = tested on: FLT3 ITD.Y842H-expressing 32D cells; experiment: Cell growth assay, FLT3 ITD.Y842H-expressing 32D cells; type: cell-based; details: Mus musculus, read-out: GI50 value for growth of FLT3 protein-expressing 32D cells
Source text: as §5, §6, §4

[5] = target: mutant FLT3 protein (FLT3 D835Y) (Homo sapiens (Human), UniProt P36888, D835Y); experiment: Mutant FLT3 (FLT3 D835Y) enzyme inhibition assay; type: biochemical; details: ATP 15 μmol/L, read-out: IC50 value for an enzymatic activity of a mutant FLT3 protein
[6] = FLT3 D835Y, 2 days with compound
[7] = FLT3 D835V, 2 days with compound
[8] = FLT3 D835H, 2 days with compound
[9] = FLT3 D835E, 2 days with compound
[10] = FLT3 D835N, 2 days with compound
[11] = FLT3 D835Ins (I836 to leucine and aspartic acid), 2 days with compound
[12] = FLT3 Y842C, 2 days with compound
[13] = FLT3 Y842H, 2 days with compound

Row | pIC50 [5] | SMILES | GI50 (32D FLT3/FL cells; FLT3/FL, 2 days with compound) | GI50 (32D FLT3 D835Y cells; [6]) | GI50 (32D FLT3 D835V cells; [7]) | GI50 (32D FLT3 D835H cells; [8]) | GI50 (32D FLT3 D835E cells; [9]) | GI50 (32D FLT3 D835N cells; [10]) | GI50 (32D FLT3 D835Ins cells; [11]) | GI50 (32D FLT3 Y842C cells; [12]) | GI50 (32D FLT3 Y842H cells; [13]) | also measured
1 | > 9.00 | CNc1nc(Nc2ccc(F)cc2)ncc1C#C[C@H]1C[C@@H](NC(=O)[C@H](C)N(C)C(=O)/C=C/CN(C)C)C1 [Compound 41] | < 1 nM | 1 to 10 nM | 1 to 10 nM | 1 to 10 nM | 1 to 10 nM | 1 to 10 nM | 1 to 10 nM | 1 to 10 nM | 1 to 10 nM | –
2 | > 9.00 | CCCNc1nc(Nc2cccc(F)c2)ncc1C#C[C@H]1C[C@@H](NC(=O)[C@H](C)N(C)C(=O)/C=C/CN(C)C)C1 [Compound 39] | < 1 nM | 1 to 10 nM | 1 to 10 nM | 1 to 10 nM | < 1 nM | < 1 nM | < 1 nM | 1 to 10 nM | 1 to 10 nM | –

More lines, now with the values behind:

Row | SMILES | pIC50 [5] | GI50 (32D FLT3/FL cells; FLT3/FL, 2 days with compound) | GI50 (32D FLT3 D835Y cells; [6]) | GI50 (32D FLT3 D835V cells; [7]) | GI50 (32D FLT3 D835H cells; [8]) | GI50 (32D FLT3 D835E cells; [9]) | GI50 (32D FLT3 D835N cells; [10]) | GI50 (32D FLT3 D835Ins cells; [11]) | GI50 (32D FLT3 Y842C cells; [12]) | GI50 (32D FLT3 Y842H cells; [13]) | also measured
3 | CCCNc1nc(Nc2ccc(C#N)cc2)ncc1C#CCCCNC(=O)[C@H](C)N(C)C(=O)/C=C/CN(C)C [Compound 38] | – | 1 to 10 nM | < 1 nM | < 1 nM | 1 to 10 nM | 1 to 10 nM | 1 to 10 nM | 1 to 10 nM | 1 to 10 nM | 1 to 10 nM | GI50 [1]: 1 to 10 nM; GI50 [2]: 1 to 10 nM; GI50 [3]: 1 to 10 nM; GI50 [4]: < 1 nM
4 | CNC(=O)c1cc(Oc2ccc(NC(=O)Nc3ccc(Cl)c(C(F)(F)F)c3)cc2)ccn1 [Reference Compound 2, Sorafenib, reference compound] | – | – | – | – | – | – | – | – | – | – | GI50 (32D FLT3/FL cells): 10 to 100 nM; GI50 (32D FLT3 D835Y cells): > 100 nM; GI50 (32D FLT3 D835V cells): > 100 nM; GI50 (32D FLT3 D835H cells): > 100 nM; GI50 (32D FLT3 D835E cells): 10 to 100 nM; GI50 (32D FLT3 D835N cells): 10 to 100 nM; GI50 (32D FLT3 D835Ins cells): 10 to 100 nM; GI50 (32D FLT3 Y842C cells): > 100 nM; GI50 (32D FLT3 Y842H cells): > 100 nM
5 | C[C@@H](C(=O)N[C@H]1C[C@@H](C#Cc2cnc(Nc3ccc(F)cc3)nc2NC2CC2)C1)N(C)C(=O)/C=C/CN(C)C [Compound 40] | > 9.00 | < 1 nM | < 1 nM | < 1 nM | 1 to 10 nM | < 1 nM | < 1 nM | < 1 nM | 1 to 10 nM | 1 to 10 nM | –
